Assay results: patent US6914045B2, “Glycopeptide antibiotics” (Wyeth Holdings Corporation, priority 2001, dated 2005)

How the values were obtained:
Assay in all cases: in vitro antibacterial evaluation, MIC by broth dilution
Type in all cases: cell-based
Escherichia coli = conditions: 18 hours at 35° C.; for MIC Escherichia coli (ATCC 25922): strain ATCC 25922
How it was run: (§1)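 MIC, the lowest antibiotic concentration preventing growth, was read across 64-0.06 μg/mL with 5×10^5 CFU/mL inoculum. Method followed NCCLS M7-A2 broth dilution using Mueller-Hinton II; Gram-positive strains covered recent methicillin-, penicillin- and/or vancomycin-resistant clinical isolates.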

Enterococcus sp. = conditions: broth dilution, 18 hours at 35° C.
How it was run: as §1

Staphylococcus sp. = conditions: broth dilution, 18 hours at 35° C.
How it was run: as §1

Streptococcus sp. = conditions: broth dilution, 18 hours at 35° C.
How it was run: as §1

[1] = Enterococcus faecalis (ATCC 29212)
[2] = Enterococcus faecalis (GC 2242)
[3] = Enterococcus faecalis (GC 4552)
[4] = Enterococcus faecalis (GC 4553)
[5] = Enterococcus faecalis (GC 4554)
[6] = inoculum 5×10^5 CFU/mL, strain GC 1131
[7] = Streptococcus agalactiae (GC 4564)
[8] = Streptococcus pneumoniae (GC 4565)

CC(c1ccccc1)C1NC(=O)CNC(=O)C(CO)NC(=O)C(C(O)C2CNC(=N)N2C2OC(CO)C(O)C(O)C2O)NC(=O)C(C(O)C2CNC(=N)N2)NC(=O)C(Cc2ccc(OC3OC(CO)C(OC4OC5COC(c6ccsc6)OC5C(O)C4O)C(O)C3O)cc2)NC1=O (stereo not shown) [Example 133]
32 µg/mL: MIC Escherichia coli (GC 4559) (Escherichia coli; strain GC 4559)
8 µg/mL: MIC Enterococcus avium (GC 4558) (Enterococcus sp.; Enterococcus avium (GC 4558)) | MIC Enterococcus faecalis (ATCC 29212) (Enterococcus sp.; [1]) | MIC Enterococcus faecalis (GC 2691) (Enterococcus sp.; Enterococcus faecalis (GC 2691)) | MIC Enterococcus faecalis (GC 3059) (Enterococcus sp.; Enterococcus faecalis (GC 3059)) | MIC Enterococcus faecalis (GC 4552) (Enterococcus sp.; [3]) | MIC Enterococcus faecalis (GC 4553) (Enterococcus sp.; [4]) | MIC Enterococcus faecalis (GC 4554) (Enterococcus sp.; [5]) | MIC Enterococcus faecium (GC 2243) (Enterococcus sp.; Enterococcus faecium (GC 2243)) | MIC Enterococcus faecium (GC 4556) (Enterococcus sp.; Enterococcus faecium (GC 4556)) | MIC Enterococcus faecalis (ATCC 29212) (Enterococcus sp.; strain ATCC 29212) | MIC Enterococcus faecium (GC 2243) (Enterococcus sp.; strain GC 2243) | MIC Enterococcus faecalis (GC 2691) (Enterococcus sp.; strain GC 2691) | MIC Enterococcus faecalis (GC 3059) (Enterococcus sp.; strain GC 3059) | MIC Enterococcus faecalis (GC 4552) (Enterococcus sp.; strain GC 4552) | MIC Enterococcus faecalis (GC 4553) (Enterococcus sp.; strain GC 4553) | MIC Enterococcus faecalis (GC 4554) (Enterococcus sp.; strain GC 4554) | MIC Enterococcus faecium (GC 4556) (Enterococcus sp.; strain GC 4556) | MIC Enterococcus avium (GC 4558) (Enterococcus sp.; strain GC 4558)
1 µg/mL: MIC Staphylococcus aureus (ATCC 29213) (Staphylococcus sp.) | MIC Staphylococcus aureus (GC 3051) (Staphylococcus sp.) | MIC Staphylococcus aureus (GC 4541) (Staphylococcus sp.) | MIC Staphylococcus aureus (GC 4545) (Staphylococcus sp.) | MIC Staphylococcus aureus (ATCC 29213) (Staphylococcus sp.; strain ATCC 29213) | MIC Staphylococcus aureus (GC 3051) (Staphylococcus sp.; strain GC 3051) | MIC Staphylococcus aureus (GC 4541) (Staphylococcus sp.; strain GC 4541) | MIC Staphylococcus aureus-SMITH (GC 4543) (Staphylococcus sp.; strain GC 4543) | MIC Staphylococcus aureus (GC 4545) (Staphylococcus sp.; strain GC 4545) | MIC Staphylococcus haemolyticus (GC 4546) (Staphylococcus sp.; strain GC 4546) | MIC Coagulase Negative Staphylococcus (GC 4547) (Staphylococcus sp.; strain GC 4547) | MIC Coagulase Negative Staphylococcus (GC 4549) (Staphylococcus sp.; strain GC 4549) | MIC Coagulase Negative Staphylococcus (GC 4551) (Staphylococcus sp.; strain GC 4551) | MIC Coagulase Negative Staphylococcus (GC 6257) (Staphylococcus sp.; strain GC 6257) | MIC Staphylococcus aureus-SMITH (GC 4543) (Staphylococcus sp.; strain SMITH GC 4543)
<0.5 µg/mL: MIC Escherichia coli (GC 4560) (Escherichia coli; strain GC 4560) | MIC Coagulase Negative Staphylococcus (GC 4548) (Staphylococcus sp.; strain GC 4548) | MIC Streptococcus agalactiae (GC 4564) (Streptococcus sp.; [7]) | MIC Streptococcus pneumoniae (ATCC 6301) (Streptococcus sp.; Streptococcus pneumoniae (ATCC 6301)) | MIC Streptococcus pneumoniae (GC 1894) (Streptococcus sp.; Streptococcus pneumoniae (GC 1894)) | MIC Streptococcus pyogenes (GC 4563) (Streptococcus sp.; Streptococcus pyogenes (GC 4563)) | MIC Streptococcus pneumoniae (ATCC 6301) (Streptococcus sp.; strain ATCC 6301) | MIC Streptococcus pneumoniae (GC 1894) (Streptococcus sp.; strain GC 1894) | MIC Streptococcus pyogenes (GC 4563) (Streptococcus sp.; strain GC 4563) | MIC Streptococcus agalactiae (GC 4564) (Streptococcus sp.; strain GC 4564)
2 µg/mL: MIC Enterococcus faecium (GC 4557) (Enterococcus sp.; Enterococcus faecium (GC 4557)) | MIC Enterococcus faecium (GC 4557) (Enterococcus sp.; strain GC 4557) | MIC Staphylococcus aureus (GC 1131) (Staphylococcus sp.) | MIC Staphylococcus aureus (GC 4542) (Staphylococcus sp.) | MIC Staphylococcus aureus (GC 4544) (Staphylococcus sp.) | MIC Staphylococcus aureus (GC 1131) (Staphylococcus sp.; [6]) | MIC Staphylococcus aureus (GC 4542) (Staphylococcus sp.; strain GC 4542) | MIC Staphylococcus aureus (GC 4544) (Staphylococcus sp.; strain GC 4544)
64 µg/mL: MIC Escherichia coli (ATCC 25922) (Escherichia coli)
4 µg/mL: MIC Enterococcus faecalis (GC 2242) (Enterococcus sp.; [2]) | MIC Enterococcus faecalis (GC 6189) (Enterococcus sp.; Enterococcus faecalis (GC 6189)) | MIC Enterococcus faecalis (GC 2242) (Enterococcus sp.; strain GC 2242) | MIC Enterococcus faecalis (GC 6189) (Enterococcus sp.; strain GC 6189) | MIC Staphylococcus aureus (GC 3053) (Staphylococcus sp.) | MIC Staphylococcus aureus (GC 3053) (Staphylococcus sp.; strain GC 3053) | MIC Streptococcus pneumoniae (GC 4565) (Streptococcus sp.; [8]) | MIC Streptococcus pneumoniae (GC 4565) (Streptococcus sp.; strain GC 4565)

CCCCCCCC1OCC2OC(OC3C(CO)OC(Oc4ccc(CC5NC(=O)C(C(C)c6ccccc6)NC(=O)CNC(=O)C(CO)NC(=O)C(C(O)C6CNC(=N)N6C6OC(CO)C(O)C(O)C6O)NC(=O)C(C(O)C6CNC(=N)N6)NC5=O)cc4)C(O)C3O)C(O)C(O)C2O1 (stereo not drawn) [Example 109, Cyclo[glycyl-β-methylphenylalanyl-O-[4-O-(4,6-O-octylidenehexopyranosyl)hexopyranosyl]-tyrosyl-3-(2-iminoimidazolidin-4-yl)seryl-3-(3-hexopyranosyl-2-iminoimidazolidin-4-yl)-serylseryl]]
16 µg/mL: MIC Escherichia coli (ATCC 25922) (Escherichia coli)
<0.5 µg/mL: MIC Coagulase Negative Staphylococcus (GC 4548) (Staphylococcus sp.) | MIC Coagulase Negative Staphylococcus (GC 4548) (Staphylococcus sp.; strain GC 4548) | MIC Streptococcus agalactiae (GC 4564) (Streptococcus sp.; [7]) | MIC Streptococcus pneumoniae (GC 4565) (Streptococcus sp.; [8]) | MIC Streptococcus pyogenes (ID-3187) (Streptococcus sp.; Streptococcus pyogenes (ID-3187)) | MIC Streptococcus agalactiae (GC 4564) (Streptococcus sp.; strain GC 4564) | MIC Streptococcus pneumoniae (GC 4565) (Streptococcus sp.; strain GC 4565) | MIC Streptococcus pyogenes (ID-3187) (Streptococcus sp.; strain ID-3187)
1 µg/mL: MIC Enterococcus faecium (GC 2243) (Enterococcus sp.; Enterococcus faecium (GC 2243)) | MIC Enterococcus faecium (GC 4557) (Enterococcus sp.; Enterococcus faecium (GC 4557)) | MIC Enterococcus faecium (GC 2243) (Enterococcus sp.; strain GC 2243) | MIC Enterococcus faecium (GC 4557) (Enterococcus sp.; strain GC 4557) | MIC Coagulase Negative Staphylococcus (GC 4547) (Staphylococcus sp.) | MIC Coagulase Negative Staphylococcus (GC 4549) (Staphylococcus sp.) | MIC Coagulase Negative Staphylococcus (GC 4551) (Staphylococcus sp.) | MIC Coagulase Negative Staphylococcus (ID-3941) (Staphylococcus sp.) | MIC Staphylococcus aureus (ATCC 29213) (Staphylococcus sp.) | MIC Staphylococcus aureus (GC 1131) (Staphylococcus sp.) | MIC Staphylococcus aureus (GC 4541) (Staphylococcus sp.) | MIC Staphylococcus aureus (GC 4542) (Staphylococcus sp.) | MIC Staphylococcus aureus (GC 4544) (Staphylococcus sp.) | MIC Staphylococcus aureus (GC 4545) (Staphylococcus sp.) | MIC Staphylococcus aureus-SMITH (GC 4543) (Staphylococcus sp.) | MIC Staphylococcus haemolyticus (GC 4546) (Staphylococcus sp.) | MIC Staphylococcus aureus (GC 1131) (Staphylococcus sp.; [6]) | MIC Staphylococcus aureus (ATCC 29213) (Staphylococcus sp.; strain ATCC 29213) | MIC Staphylococcus aureus (GC 4541) (Staphylococcus sp.; strain GC 4541) | MIC Staphylococcus aureus (GC 4542) (Staphylococcus sp.; strain GC 4542) | MIC Staphylococcus aureus (GC 4544) (Staphylococcus sp.; strain GC 4544) | MIC Staphylococcus aureus (GC 4545) (Staphylococcus sp.; strain GC 4545) | MIC Staphylococcus haemolyticus (GC 4546) (Staphylococcus sp.; strain GC 4546) | MIC Coagulase Negative Staphylococcus (GC 4547) (Staphylococcus sp.; strain GC 4547) | MIC Coagulase Negative Staphylococcus (GC 4549) (Staphylococcus sp.; strain GC 4549) | MIC Coagulase Negative Staphylococcus (GC 4551) (Staphylococcus sp.; strain GC 4551) | MIC Coagulase Negative Staphylococcus (ID-3941) (Staphylococcus sp.; strain ID-3941) | MIC Staphylococcus aureus-SMITH (GC 4543) (Staphylococcus sp.; strain SMITH GC 4543)
2 µg/mL: MIC Enterococcus avium (GC 4558) (Enterococcus sp.; Enterococcus avium (GC 4558)) | MIC Enterococcus faecalis (ATCC 29212) (Enterococcus sp.; [1]) | MIC Enterococcus faecalis (GC 2242) (Enterococcus sp.; [2]) | MIC Enterococcus faecalis (GC 4552) (Enterococcus sp.; [3]) | MIC Enterococcus faecalis (GC 4553) (Enterococcus sp.; [4]) | MIC Enterococcus faecalis (GC 4554) (Enterococcus sp.; [5]) | MIC Enterococcus faecium (GC 4556) (Enterococcus sp.; Enterococcus faecium (GC 4556)) | MIC Enterococcus faecalis (ATCC 29212) (Enterococcus sp.; strain ATCC 29212) | MIC Enterococcus faecalis (GC 2242) (Enterococcus sp.; strain GC 2242) | MIC Enterococcus faecalis (GC 4552) (Enterococcus sp.; strain GC 4552) | MIC Enterococcus faecalis (GC 4553) (Enterococcus sp.; strain GC 4553) | MIC Enterococcus faecalis (GC 4554) (Enterococcus sp.; strain GC 4554) | MIC Enterococcus faecium (GC 4556) (Enterococcus sp.; strain GC 4556) | MIC Enterococcus avium (GC 4558) (Enterococcus sp.; strain GC 4558)
